Read-outs that look alike come from different tables or passages of the source.
Columns and labels:
p70S6K = target: T1, p70S6K (Homo sapiens, UniProt P23443, T412E); test: p70S6K inhibition assay (IMAP); assay type: biochemical
T1 construct: purchased Upstate Chemicon 14-486
Protocol: Inhibition of Akt3 and p70S6K activity was determined using the IMAP™ FP Progressive Binding Kit (Molecular Devices product number R8127). […] Following the pre-incubation, 30 M ATP was added to initiate the reaction. After 60 minutes at RT, Molecular Devices IMAP™ binding solution was added to bind phosphorylated substrate. After 30 minutes of incubation in the presence of the IMAP™ beads the fluorescence polarization was read and the ratio was reported as mP. IC50 results were calculated using the Prism software from Graphpad. The Ki values were determined according to the following formula: Ki=IC50/(1+([ATP Challenge]/EC50 ATP)).

[1] = Compound plasma concentrations in mice at 15 min post administration; assay type: in vivo, mouse; settings: mouse
ROCK1 = target: T2, ROCK1 (Homo sapiens, UniProt Q13464); test: Rho kinase inhibition assay (IMAP), ROCK1; assay type: biochemical
T2 construct: purchased Upstate/Chemicon 14-601
Protocol: Following the pre-incubation, 10 μM ATP was added to initiate the reaction. After 60 minutes at room temperature, Molecular Devices IMAP™ binding solution was added to bind phosphorylated substrate. After 30 minutes of incubation in the presence of the IMAP™ beads, the fluorescence polarization was read and the ratio was reported as mP. IC50 values for compounds and EC50 values for ATP were calculated using the Prism software from Graphpad.

Mnk2 = target: T3, Mnk2 (Homo sapiens, UniProt Q9HBH9); test: Kinase panel screen, Mnk2; assay type: biochemical; settings: 10 μM ATP
T3 construct: purchased Upstate, Millipore Bioscience Division (KinaseProfiler service)
Protocol: (§1) Compounds of Formulae I and II were examined for activity against a selected panel of kinases using the KinaseProfiler™ enzyme profiling services (Upstate, Millipore Bioscience Division). Percent kinase activity at 10 μM and 1 μM test compound and 10 μM ATP was determined against 40 wild-type recombinant human kinases according to Upstate's standard protocol: ASK1, BTK, CSK, c-RAF, GCK, GSK3β, IKKα, IKKβ, IRAK1, IRAK4, JNK1α1, JNK2α2, JNK3, ERK1, ERK2, MAPKAP-K2, MAPKAP-K3, MEK1, MKK4, MKK6, MKK7β, Mnk2, MSK1, PAK3, PDK1, PRAK, ROCK1, Rsk2, SAPK2a, SAPK2b, SAPK3, SAPK4, SRPK1, SRPK2, Syk, TAK1, TBK1, PI3-Kβ, PI3-Kγ, PI3-Kδ.

IRAK1 = target: T4, IRAK1 (Homo sapiens, UniProt P51617); test: Kinase panel screen, IRAK1; assay type: biochemical; settings: 10 μM ATP
T4 construct: purchased Upstate, Millipore Bioscience Division (KinaseProfiler service)
Protocol: as §1

GCK = target: T5, GCK (Homo sapiens, UniProt Q12851); test: Kinase panel screen, GCK; assay type: biochemical; settings: 1 μM test compound, 10 μM ATP
T5 construct: purchased Upstate, Millipore Bioscience Division (KinaseProfiler service)
T5 sequence (Q12851 1-820): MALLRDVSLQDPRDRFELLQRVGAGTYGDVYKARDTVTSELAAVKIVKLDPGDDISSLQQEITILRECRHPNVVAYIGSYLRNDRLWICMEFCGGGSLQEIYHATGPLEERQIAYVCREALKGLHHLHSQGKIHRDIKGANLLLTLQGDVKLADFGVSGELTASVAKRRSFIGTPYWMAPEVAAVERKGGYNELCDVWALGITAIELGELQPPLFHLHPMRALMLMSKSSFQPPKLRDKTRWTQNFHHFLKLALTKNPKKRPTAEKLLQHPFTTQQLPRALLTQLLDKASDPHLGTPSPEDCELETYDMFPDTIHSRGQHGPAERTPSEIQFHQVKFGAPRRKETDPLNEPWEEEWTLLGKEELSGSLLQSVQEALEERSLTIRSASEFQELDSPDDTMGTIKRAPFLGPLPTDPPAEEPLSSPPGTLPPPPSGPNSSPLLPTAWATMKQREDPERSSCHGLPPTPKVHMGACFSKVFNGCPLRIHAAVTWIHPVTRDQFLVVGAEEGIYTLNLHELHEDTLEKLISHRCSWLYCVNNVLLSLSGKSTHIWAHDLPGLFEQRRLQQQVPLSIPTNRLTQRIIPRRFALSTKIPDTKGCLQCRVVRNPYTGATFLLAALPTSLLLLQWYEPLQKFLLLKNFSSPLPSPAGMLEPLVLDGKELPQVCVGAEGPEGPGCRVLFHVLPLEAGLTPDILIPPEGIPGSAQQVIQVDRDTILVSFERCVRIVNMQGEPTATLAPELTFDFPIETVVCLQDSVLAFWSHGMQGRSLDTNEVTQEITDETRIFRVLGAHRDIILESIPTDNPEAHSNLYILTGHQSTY
Protocol: as §1

[2] = tested on: ovalbumin-sensitized mice; test: Prevention of airway hyperreactivity development, anti-inflammatory dosing paradigm (Penh); assay type: in vivo, mouse; settings: intratracheal, once a day, days 27 to 30 (1.091) or 27 to 31
rat tracheal rings = test: Tracheal relaxation assay, carbachol precontracted rings
Protocol: Trachea were excised, cleaned of connective tissue and cut into cylindrical segments of 2-3 mm length. Two stainless steel wires were guided through the lumen of the tracheal ring. One wire was fixed in the tissue bath and the other was connected to a force transducer via surgical silk. […] Indomethacin (1 μM), a cyclooxygenase inhibitor, was added to the Krebs buffer and was present throughout the experiments. Contractile tensions were measured using an isometric force transducer (Grass Instruments) and signals were analyzed using specialized software (Chart v5.5, ADInstruments). The preparations were allowed to equilibrate at a resting tension of 0.3 to 0.5 gm prior to two challenges with 60 mM KCl to assess tissue viability. After washing, tissues were treated with 1 μM carbachol for 10 to 15 minutes to induce a contractile response. Test Compounds were added cumulatively to the bath every 30 minutes and reductions in tension were recorded. Basal tension was subtracted from all values and data were reported as a percentage of the maximal carbachol-induced contraction. Data were fit to the Hill equation using GraphPad Prism v5 software.

[3] = IMAP FP, human enzyme, Ki=IC50/(1+([ATP Challenge]/EC50 ATP)), read-out: p70S6K Ki, Avg
[4] = average Ki (Example 31), read-out: p70S6K Ki
[5] = Balb/c, 15 μmol/kg, mean compound plasma concentration in mice at 15 minutes post oral administration, read-out: Mouse Oral PK
[6] = mice, plasma, 15 min post administration (oral dosing), mean of n = 3 mice, read-out: Plasma Mean Concentration
[7] = read-out: ROCK1 Ki, average Ki (Example 1)

T1 sequence (P23443 1-421 T412E limits assumed): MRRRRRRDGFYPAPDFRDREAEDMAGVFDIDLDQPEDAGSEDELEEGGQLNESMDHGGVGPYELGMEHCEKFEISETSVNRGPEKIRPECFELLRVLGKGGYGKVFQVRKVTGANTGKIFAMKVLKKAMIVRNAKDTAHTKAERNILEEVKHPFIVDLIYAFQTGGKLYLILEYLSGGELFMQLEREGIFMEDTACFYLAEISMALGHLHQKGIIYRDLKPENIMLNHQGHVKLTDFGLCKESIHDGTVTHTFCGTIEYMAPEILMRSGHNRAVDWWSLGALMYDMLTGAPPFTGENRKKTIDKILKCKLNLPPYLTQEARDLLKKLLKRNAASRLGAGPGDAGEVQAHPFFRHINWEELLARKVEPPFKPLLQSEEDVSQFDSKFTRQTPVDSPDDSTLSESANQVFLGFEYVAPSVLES
T2 sequence (Q13464 17-535 limits assumed): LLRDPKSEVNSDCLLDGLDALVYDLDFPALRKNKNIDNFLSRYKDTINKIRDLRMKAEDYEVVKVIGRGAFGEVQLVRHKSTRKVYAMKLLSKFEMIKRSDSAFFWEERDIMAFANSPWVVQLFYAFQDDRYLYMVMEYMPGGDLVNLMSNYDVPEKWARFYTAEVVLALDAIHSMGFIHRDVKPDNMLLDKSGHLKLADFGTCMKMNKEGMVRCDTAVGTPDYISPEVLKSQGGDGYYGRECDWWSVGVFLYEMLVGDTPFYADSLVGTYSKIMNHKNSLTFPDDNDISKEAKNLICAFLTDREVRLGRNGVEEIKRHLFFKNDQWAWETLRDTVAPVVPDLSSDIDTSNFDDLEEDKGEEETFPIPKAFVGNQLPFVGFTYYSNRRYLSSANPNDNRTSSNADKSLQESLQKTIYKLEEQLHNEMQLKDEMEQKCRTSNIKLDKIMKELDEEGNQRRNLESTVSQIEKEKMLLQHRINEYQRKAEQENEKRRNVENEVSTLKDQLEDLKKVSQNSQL
T3 sequence (Q9HBH9 whole entry): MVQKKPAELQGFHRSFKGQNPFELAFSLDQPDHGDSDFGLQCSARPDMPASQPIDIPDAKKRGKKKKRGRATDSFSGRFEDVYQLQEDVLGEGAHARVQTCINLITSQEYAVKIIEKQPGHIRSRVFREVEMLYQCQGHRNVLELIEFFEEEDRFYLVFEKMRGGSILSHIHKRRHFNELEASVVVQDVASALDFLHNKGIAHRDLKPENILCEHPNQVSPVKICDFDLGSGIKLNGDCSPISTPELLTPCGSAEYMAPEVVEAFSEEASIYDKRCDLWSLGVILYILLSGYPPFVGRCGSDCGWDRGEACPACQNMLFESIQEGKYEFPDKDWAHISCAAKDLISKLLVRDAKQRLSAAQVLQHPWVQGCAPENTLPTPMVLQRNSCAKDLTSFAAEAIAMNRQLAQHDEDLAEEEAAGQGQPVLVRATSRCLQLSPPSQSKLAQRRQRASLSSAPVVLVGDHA
T4 sequence (P51617 whole entry): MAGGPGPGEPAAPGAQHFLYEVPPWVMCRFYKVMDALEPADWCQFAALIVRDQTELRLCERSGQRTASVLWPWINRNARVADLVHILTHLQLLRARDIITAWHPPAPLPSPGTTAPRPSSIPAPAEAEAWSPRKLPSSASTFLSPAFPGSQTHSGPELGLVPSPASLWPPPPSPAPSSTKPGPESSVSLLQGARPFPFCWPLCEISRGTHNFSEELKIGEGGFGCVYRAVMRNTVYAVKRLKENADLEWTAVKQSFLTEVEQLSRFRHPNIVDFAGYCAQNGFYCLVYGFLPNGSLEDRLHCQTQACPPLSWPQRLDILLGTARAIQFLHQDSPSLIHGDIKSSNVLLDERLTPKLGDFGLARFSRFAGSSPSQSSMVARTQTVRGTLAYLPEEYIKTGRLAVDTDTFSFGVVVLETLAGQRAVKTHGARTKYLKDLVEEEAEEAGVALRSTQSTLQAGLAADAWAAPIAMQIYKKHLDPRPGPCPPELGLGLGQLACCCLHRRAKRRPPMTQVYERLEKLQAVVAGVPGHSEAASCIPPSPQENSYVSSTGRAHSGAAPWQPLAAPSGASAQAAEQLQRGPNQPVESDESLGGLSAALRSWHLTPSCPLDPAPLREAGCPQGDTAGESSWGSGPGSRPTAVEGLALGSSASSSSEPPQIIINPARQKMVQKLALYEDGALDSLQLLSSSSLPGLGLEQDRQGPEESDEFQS

| Percent inhibition, Mnk2 (Mnk2; 1 μM test compound) [%] | Percent inhibition, Mnk2 (Mnk2; 10 μM test compound) [%] | Percent inhibition, IRAK1 (IRAK1; 1 μM test compound) [%] | Percent inhibition, IRAK1 (IRAK1; 10 μM test compound) [%] | percent inhibition at 1 µM (GCK) [%] | IC50, tracheal ring relaxation (rat tracheal rings; carbachol precontracted tissue) | SMILES | Ki (p70S6K; [3]) [µM] | Ki (p70S6K; [4]) [µM] | concentration at 15 min [1, 5] [nM] | concentration at 15 min [1, 6] [nM] | Ki (ROCK1) [µM] | Ki (ROCK1; [7]) [µM] | Prevention of airway hyperreactivity [2] | Percentage of carbachol-induced contraction at 10 μM compound, Avg % (rat tracheal rings; 10 μM compound, 1 μM carbachol precontracted rat trachea rings) |
| --- | --- | --- | --- | --- | --- | --- | --- | --- | --- | --- | --- | --- | --- | --- |
|  |  |  |  |  |  | Cc1ccc(CN2CCC[C@H](Nc3ccc4[nH]ncc4c3)C2)cc1NS(=O)(=O)N(C)C [Compound 1.237] | 9.87 | 9.87 | 178 | 178 | 0.287 | 0.287 |  |  |
|  |  |  |  |  |  | Cc1ccc(CN2CCC[C@@H](Nc3ccc4[nH]ncc4c3)C2)cc1NS(=O)(=O)N(C)C [Compound 1.262] | 5.44 | 5.44 | 285 | 285 | 0.0549 | 0.0549 |  |  |
| 99 | 54 | 74 | 32 | 39 |  | OCCn1ccc2cc(CN3CC[C@@H](Nc4cccc5cnccc45)C3)ccc21 [Compound 2.066] |  |  |  |  |  |  | prevention of airway hyperreactivity |  |
|  |  |  |  |  | could not be obtained | O=S(=O)(c1cccc2cnccc12)N1CCCNCC1 [fasudil] |  |  |  |  |  |  |  | least efficacious |

Source: patent publication US8299096B2, “Method for treating pulmonary diseases using rho kinase inhibitor compounds” (priority 2008, dated 2012)
